# Results taken from patent US20180036289A1 (Gilead Sciences, Inc., priority 2016, published 2018).
# How the values were obtained:
# Assay in all cases: Cell proliferation assay (ATPlite), drug with vs without cobicistat
# Assay type in all cases: cell-based
# LoVo = LoVo cell line; 120 hours incubation
# Method: (§1) All cell lines were obtained from the American Type Culture Collection (ATCC) Manassas, Va. (US). Master and working cell banks (MCB and WCB) were prepared by subculturing in ATCC-recommended media and freezing protocols (www.atcc.org). Cell line stocks for the assays were prepared from the WCB. The MCB, WCBs and assay stocks were prepared within respectively 3, 6 and 9 passages of the ATCC vial.
# (§2) Solid powders of reference compounds were weighed on a calibrated balance and dissolved in 100% DMSO. DMSO samples were stored at room temperature. At the day of the experiment, the compound stock was diluted in 3.16 fold steps in 100% DMSO to obtain a 9-point dilution series. This was further diluted 31.6 times in 20 mM sterile Hepes buffer pH 7.4. A volume of 5 μl was transferred to the cells to generate a test concentration range from 3.16×10^−5M to 3.16×10^−9 M in duplicate. The final DMSO concentration during incubation was […] in all wells.
# (§3) An assay stock was thawed and diluted in its ATCC recommended medium and dispensed in a 384-well plate, depending on the cell line used, at a concentration of 200-3200 cells per well in 45 μl medium. For each used cell line the optimal cell density is used. The margins of the plate were filled with phosphate-buffered saline. Plated cells were incubated in a humidified atmosphere of 5% CO2 at 37° C. After 24 hours, 5 μl of compound dilution was added and plates were further incubated for another 120 hours. After 120 hours, 25 μl of ATPlite 1Step™ (PerkinElmer) solution was added to each well, and subsequently shaken for 2 minutes. After 10 minutes of incubation in the dark, the luminescence was recorded on an Envision multimode reader (PerkinElmer).
# (§4) IC50s were calculated by non-linear regression using IDBS XLfit 5. The percentage growth after 120 h (%-growth) was calculated as follows: 100%×(luminescencet=120h/luminescenceuntreated,t=120h). This was fitted to the ^10log compound concentration (conc) by a 4-parameter logistics curve: %−growth=bottom+(top−bottom)/(1+10^(log IC50-conc)*hill)), where hill is the Hill-coefficient, and bottom and top the asymptotic minimum and maximum cell growth that the compound allows in that assay.
# DLD-1 = DLD-1 cell line; 120 hours incubation
# Method: as §1, §2, §3, §4
# SK-N-FI = SK-N-FI cell line; 120 hours incubation
# Method: as §1, §2, §3, §4
# HCT 116 = HCT 116 cell line; 120 hours incubation
# Method: as §1, §2, §3, §4
# T98G = T98G cell line; 120 hours incubation
# Method: as §1, §2, §3, §4
# COLO 205 = COLO 205 cell line; 120 hours incubation
# Method: as §1, §2, §3, §4
# A-204 = A-204 cell line; 120 hours incubation
# Method: as §1, §2, §3, §4
# SJCRH30 = SJCRH30 cell line; 120 hours incubation
# Method: as §1, §2, §3, §4
# 769-P = 769-P cell line; 120 hours incubation
# Method: as §1, §2, §3, §4
# 786-O = 786-O cell line; 120 hours incubation
# Method: as §1, §2, §3, §4
# HCT-15 = HCT-15 cell line; 120 hours incubation
# Method: as §1, §2, §3, §4
# K-562 = K-562 cell line; 120 hours incubation
# Method: as §1, §2, §3, §4
# ACHN = ACHN cell line; 120 hours incubation
# Method: as §1, §2, §3, §4
# RPMI-7951 = RPMI-7951 cell line; 120 hours incubation
# Method: as §1, §2, §3, §4
# A-549 = A-549 cell line; 120 hours incubation
# Method: as §1, §2, §3, §4
# U-87 MG = U-87 MG cell line; 120 hours incubation
# Method: as §1, §2, §3, §4
# BT-549 = BT-549 cell line; 120 hours incubation
# Method: as §1, §2, §3, §4
# A-427 = A-427 cell line; 120 hours incubation
# Method: as §1, §2, §3, §4
# OVCAR-3 = OVCAR-3 cell line; 120 hours incubation
# Method: as §1, §2, §3, §4
# SW48 = SW48 cell line; 120 hours incubation
# Method: as §1, §2, §3, §4
# AU-565 = AU-565 cell line; 120 hours incubation
# Method: as §1, §2, §3, §4
# SUP-T1 = SUP-T1 cell line; 120 hours incubation
# Method: as §1, §2, §3, §4
# MG-63 = MG-63 cell line; 120 hours incubation
# Method: as §1, §2, §3, §4
# Hs 578T = Hs 578T cell line; 120 hours incubation
# Method: as §1, §2, §3, §4
# A375 = A375 cell line; 120 hours incubation
# Method: as §1, §2, §3, §4
# MeWo = MeWo cell line; 120 hours incubation
# Method: as §1, §2, §3, §4
# PA-1 = PA-1 cell line; 120 hours incubation
# Method: as §1, §2, §3, §4
# SR = SR cell line; 120 hours incubation
# Method: as §1, §2, §3, §4
# AN3 CA = AN3 CA cell line; 120 hours incubation
# Method: as §1, §2, §3, §4
# A-704 = A-704 cell line; 120 hours incubation
# Method: as §1, §2, §3, §4
SMILES,Fold change in IC50 (IC50 [Drug + Cobicistat]/IC50 [Drug]) (LoVo) [fold],Fold change in IC50 (IC50 [Drug + Cobicistat]/IC50 [Drug]) (DLD-1) [fold],Fold change in IC50 (IC50 [Drug + Cobicistat]/IC50 [Drug]) (SK-N-FI) [fold],Fold change in IC50 (IC50 [Drug + Cobicistat]/IC50 [Drug]) (HCT 116) [fold],Fold change in IC50 (IC50 [Drug + Cobicistat]/IC50 [Drug]) (T98G) [fold],Fold change in IC50 (IC50 [Drug + Cobicistat]/IC50 [Drug]) (COLO 205) [fold],Fold change in IC50 (IC50 [Drug + Cobicistat]/IC50 [Drug]) (A-204) [fold],Fold change in IC50 (IC50 [Drug + Cobicistat]/IC50 [Drug]) (SJCRH30) [fold],Fold change in IC50 (IC50 [Drug + Cobicistat]/IC50 [Drug]) (769-P) [fold],Fold change in IC50 (IC50 [Drug + Cobicistat]/IC50 [Drug]) (786-O) [fold],Fold change in IC50 (IC50 [Drug + Cobicistat]/IC50 [Drug]) (HCT-15) [fold],Fold change in IC50 (IC50 [Drug + Cobicistat]/IC50 [Drug]) (K-562) [fold],Fold change in IC50 (IC50 [Drug + Cobicistat]/IC50 [Drug]) (ACHN) [fold],Fold change in IC50 (IC50 [Drug + Cobicistat]/IC50 [Drug]) (RPMI-7951) [fold],Fold change in IC50 (IC50 [Drug + Cobicistat]/IC50 [Drug]) (A-549) [fold],Fold change in IC50 (IC50 [Drug + Cobicistat]/IC50 [Drug]) (U-87 MG) [fold],Fold change in IC50 (IC50 [Drug + Cobicistat]/IC50 [Drug]) (BT-549) [fold],Fold change in IC50 (IC50 [Drug + Cobicistat]/IC50 [Drug]) (A-427) [fold],Fold change in IC50 (IC50 [Drug + Cobicistat]/IC50 [Drug]) (OVCAR-3) [fold],Fold change in IC50 (IC50 [Drug + Cobicistat]/IC50 [Drug]) (SW48) [fold],other results
Cc1nc(Nc2ncc(C(=O)Nc3c(C)cccc3Cl)s2)cc(N2CCN(CCO)CC2)n1 [dasatinib],1.0,1.4,2.0,3.4,2.3,1.2,2.2,1.4,3.8,1.6,2.6,1.1,2.8,3.0,1.0,1.1,1.5,5.8,1.6,2.2,Fold change in IC50 (IC50 [Drug + Cobicistat]/IC50 [Drug]) (AU-565): 8.4 fold; Fold change in IC50 (IC50 [Drug + Cobicistat]/IC50 [Drug]) (SUP-T1): 1.4 fold; Fold change in IC50 (IC50 [Drug + Cobicistat]/IC50 [Drug]) (MG-63): 2.9 fold; Fold change in IC50 (IC50 [Drug + Cobicistat]/IC50 [Drug]) (Hs 578T): 2.5 fold; Fold change in IC50 (IC50 [Drug + Cobicistat]/IC50 [Drug]) (A375): 1.3 fold; Fold change in IC50 (IC50 [Drug + Cobicistat]/IC50 [Drug]) (MeWo): 1.0 fold; Fold change in IC50 (IC50 [Drug + Cobicistat]/IC50 [Drug]) (PA-1): 2.6 fold; Fold change in IC50 (IC50 [Drug + Cobicistat]/IC50 [Drug]) (SR): 1.9 fold; Fold change in IC50 (IC50 [Drug + Cobicistat]/IC50 [Drug]) (AN3 CA): 1.2 fold; Fold change in IC50 (IC50 [Drug + Cobicistat]/IC50 [Drug]) (A-704): 1.0 fold
CC(=O)O[C@@]12CO[C@@H]1C[C@H](O)[C@@]1(C)C(=O)[C@H](O)C3=C(C)[C@@H](OC(=O)[C@H](O)[C@@H](NC(=O)OC(C)(C)C)c4ccccc4)C[C@@](O)([C@@H](OC(=O)c4ccccc4)[C@H]21)C3(C)C [docetaxel],2.0,2.7,5.1,1.9,7.7,3.9,5.7,4.1,3.0,4.2,2.8,3.2,4.6,3.3,1.1,2.0,1.4,1.3,2.2,1.6,Fold change in IC50 (IC50 [Drug + Cobicistat]/IC50 [Drug]) (AU-565): 3.2 fold; Fold change in IC50 (IC50 [Drug + Cobicistat]/IC50 [Drug]) (SUP-T1): 4.5 fold; Fold change in IC50 (IC50 [Drug + Cobicistat]/IC50 [Drug]) (MG-63): 3.3 fold; Fold change in IC50 (IC50 [Drug + Cobicistat]/IC50 [Drug]) (Hs 578T): 1.9 fold; Fold change in IC50 (IC50 [Drug + Cobicistat]/IC50 [Drug]) (A375): 2.8 fold; Fold change in IC50 (IC50 [Drug + Cobicistat]/IC50 [Drug]) (MeWo): 2.3 fold; Fold change in IC50 (IC50 [Drug + Cobicistat]/IC50 [Drug]) (PA-1): 5.2 fold; Fold change in IC50 (IC50 [Drug + Cobicistat]/IC50 [Drug]) (SR): 3.6 fold; Fold change in IC50 (IC50 [Drug + Cobicistat]/IC50 [Drug]) (AN3 CA): 2.1 fold; Fold change in IC50 (IC50 [Drug + Cobicistat]/IC50 [Drug]) (A-704): 2.3 fold
COc1cccc2c1C(=O)c1c(O)c3c(c(O)c1C2=O)C[C@@](O)(C(=O)CO)C[C@@H]3O[C@H]1C[C@H](N)[C@H](O)[C@H](C)O1 [doxorubicin],2.0,1.4,2.0,1.8,1.4,2.3,2.5,2.2,5.1,2.3,2.0,2.5,2.2,2.3,0.8,0.7,1.5,1.5,2.5,1.8,Fold change in IC50 (IC50 [Drug + Cobicistat]/IC50 [Drug]) (AU-565): 2.1 fold; Fold change in IC50 (IC50 [Drug + Cobicistat]/IC50 [Drug]) (SUP-T1): 2.0 fold; Fold change in IC50 (IC50 [Drug + Cobicistat]/IC50 [Drug]) (MG-63): 2.4 fold; Fold change in IC50 (IC50 [Drug + Cobicistat]/IC50 [Drug]) (Hs 578T): 1.7 fold; Fold change in IC50 (IC50 [Drug + Cobicistat]/IC50 [Drug]) (A375): 2.2 fold; Fold change in IC50 (IC50 [Drug + Cobicistat]/IC50 [Drug]) (MeWo): 2.1 fold; Fold change in IC50 (IC50 [Drug + Cobicistat]/IC50 [Drug]) (PA-1): 3.0 fold; Fold change in IC50 (IC50 [Drug + Cobicistat]/IC50 [Drug]) (SR): 1.8 fold; Fold change in IC50 (IC50 [Drug + Cobicistat]/IC50 [Drug]) (AN3 CA): 2.0 fold; Fold change in IC50 (IC50 [Drug + Cobicistat]/IC50 [Drug]) (A-704): 1.3 fold
